{"source": "the supplement of paper PMC10307832"}
{"compound": "C[C@@H](C(=O)N[C@@H](C1CCCCC1)C(=O)N2CCC[C@H]2C(=O)N[C@@H]3[C@@H](CC4=CC=CC=C34)OCC#CC#CCO[C@@H]5CC6=CC=CC=C6[C@@H]5NC(=O)[C@@H]7CCCN7C(=O)[C@H](C8CCCCC8)NC(=O)[C@H](C)NC)NC [AZD5582] + Cc1cc(Nc2cc(N3CCN(C)CC3)nc(Sc3ccc(NC(=O)C4CC4)cc3)n2)n[nH]1 [Tozasertib] (partner 0.1 µM)", "assay": "relative viability (nuclei count vs DMSO), 5 days (fraction); higher = more cells survive", "details": "first compound 0.05 µM", "in_short": "(§1)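 After 5 days of treatment, lung cancer cells in 1536-well plates were fixed and stained in a single step (final 0.05% Triton X-100, 1% formaldehyde, 1 ug/ml Hoechst) and their nuclei counted on 4× images. Treatment had been applied by pin tool the day after seeding as one drug alone or as a fixed anchor-drug dose with five library-drug doses (not always all listed) in √10 steps. Relative viability is the nuclei count of treated wells divided by that of vehicle wells, and values are medians of duplicate plates.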"}
{"cell line": "NCI-H1648", "relative viability": 0.615}
{"cell line": "NCI-H1650", "relative viability": 0.304}
{"cell line": "NCI-H2009", "relative viability": 0.788}
{"cell line": "NCI-H2023", "relative viability": 0.305}
{"cell line": "NCI-H2228", "relative viability": 0.161}
{"cell line": "NCI-H2342", "relative viability": 0.542}
{"cell line": "SK-LU-1", "relative viability": 0.13}
{"cell line": "SK-MES-1", "relative viability": 0.805}
{"cell line": "SW 900", "relative viability": 0.468}
{"cell line": "SW 1573", "relative viability": 0.255}
{"cell line": "UMC-11", "relative viability": 0.203}
{"compound": "C[C@@H](C(=O)N[C@@H](C1CCCCC1)C(=O)N2CCC[C@H]2C(=O)N[C@@H]3[C@@H](CC4=CC=CC=C34)OCC#CC#CCO[C@@H]5CC6=CC=CC=C6[C@@H]5NC(=O)[C@@H]7CCCN7C(=O)[C@H](C8CCCCC8)NC(=O)[C@H](C)NC)NC [AZD5582] + NC(=O)Nc1cc(-c2cccc(F)c2)sc1C(=O)N[C@H]1CCCNC1 [AZD7762] (partner 0.2 µM)", "assay": "relative viability (nuclei count vs DMSO), 5 days (fraction); higher = more cells survive", "details": "first compound 0.001581 µM", "in_short": "as §1"}
{"cell line": "201T", "relative viability": 0.479}
{"cell line": "A-427", "relative viability": 0.682}
{"cell line": "ABC-1", "relative viability": 0.59}
{"cell line": "BEN", "relative viability": 0.74}
{"cell line": "CAL-12T", "relative viability": 0.423}
{"cell line": "ChaGo-K-1", "relative viability": 0.794}
{"cell line": "EKVX", "relative viability": 0.603}
{"cell line": "EMC-BAC-2", "relative viability": 1.07}
{"cell line": "EPLC-272H", "relative viability": 0.0994}
{"cell line": "H3255", "relative viability": 0.805}
{"cell line": "HARA", "relative viability": 0.204}
{"cell line": "HCC-15", "relative viability": 1.06}
{"cell line": "HCC-44", "relative viability": 0.9}
{"cell line": "HCC-78", "relative viability": 0.691}
{"cell line": "HCC-366", "relative viability": 0.132}
{"cell line": "HCC-827", "relative viability": 0.192}
{"cell line": "HOP-62", "relative viability": 0.29}
{"cell line": "LC-2-ad", "relative viability": 0.821}
{"cell line": "LCLC-97TM1", "relative viability": 0.193}
{"cell line": "LCLC-103H", "relative viability": 0.745}
{"cell line": "NCI-H522", "relative viability": 0.982}
{"cell line": "NCI-H1648", "relative viability": 0.462}
{"cell line": "NCI-H1792", "relative viability": 0.647}
{"cell line": "NCI-H2342", "relative viability": 0.429}
{"cell line": "SW 900", "relative viability": 0.539}
{"compound": "C[C@@H](C(=O)N[C@@H](C1CCCCC1)C(=O)N2CCC[C@H]2C(=O)N[C@@H]3[C@@H](CC4=CC=CC=C34)OCC#CC#CCO[C@@H]5CC6=CC=CC=C6[C@@H]5NC(=O)[C@@H]7CCCN7C(=O)[C@H](C8CCCCC8)NC(=O)[C@H](C)NC)NC [AZD5582] + NC(=O)Nc1cc(-c2cccc(F)c2)sc1C(=O)N[C@H]1CCCNC1 [AZD7762] (partner 0.2 µM)", "assay": "relative viability (nuclei count vs DMSO), 5 days (fraction); higher = more cells survive", "details": "first compound 0.005 µM", "in_short": "as §1"}
{"cell line": "201T", "relative viability": 0.579}
{"cell line": "A-427", "relative viability": 0.703}
{"cell line": "ABC-1", "relative viability": 1.13}
{"cell line": "BEN", "relative viability": 0.701}
{"cell line": "CAL-12T", "relative viability": 0.468}
{"cell line": "ChaGo-K-1", "relative viability": 0.874}
{"cell line": "EKVX", "relative viability": 0.661}
{"cell line": "EMC-BAC-2", "relative viability": 1.06}
{"cell line": "H3255", "relative viability": 0.779}
{"cell line": "HARA", "relative viability": 0.261}
{"cell line": "HCC-15", "relative viability": 1.05}
{"cell line": "HCC-44", "relative viability": 1.01}
{"cell line": "HCC-78", "relative viability": 0.601}
{"cell line": "HCC-366", "relative viability": 0.285}
{"cell line": "HCC-827", "relative viability": 0.139}
{"cell line": "HOP-62", "relative viability": 0.395}
{"cell line": "LC-2-ad", "relative viability": 1.04}
{"cell line": "LCLC-97TM1", "relative viability": 0.221}
{"cell line": "LCLC-103H", "relative viability": 0.725}
{"cell line": "NCI-H522", "relative viability": 0.887}
{"cell line": "NCI-H1648", "relative viability": 0.649}
{"cell line": "NCI-H1792", "relative viability": 0.625}
{"cell line": "NCI-H2342", "relative viability": 0.43}
{"cell line": "SW 900", "relative viability": 0.491}
{"compound": "C[C@@H](C(=O)N[C@@H](C1CCCCC1)C(=O)N2CCC[C@H]2C(=O)N[C@@H]3[C@@H](CC4=CC=CC=C34)OCC#CC#CCO[C@@H]5CC6=CC=CC=C6[C@@H]5NC(=O)[C@@H]7CCCN7C(=O)[C@H](C8CCCCC8)NC(=O)[C@H](C)NC)NC [AZD5582] + NC(=O)Nc1cc(-c2cccc(F)c2)sc1C(=O)N[C@H]1CCCNC1 [AZD7762] (partner 0.2 µM)", "assay": "relative viability (nuclei count vs DMSO), 5 days (fraction); higher = more cells survive", "details": "first compound 0.01581 µM", "in_short": "as §1"}
{"cell line": "201T", "relative viability": 0.556}
{"cell line": "A-427", "relative viability": 0.748}
{"cell line": "ABC-1", "relative viability": 0.72}
{"cell line": "BEN", "relative viability": 0.866}
{"cell line": "CAL-12T", "relative viability": 0.485}
{"cell line": "ChaGo-K-1", "relative viability": 0.816}
{"cell line": "EKVX", "relative viability": 0.565}
{"cell line": "EMC-BAC-2", "relative viability": 0.996}
{"cell line": "EPLC-272H", "relative viability": 0.204}
{"cell line": "H3255", "relative viability": 0.842}
{"cell line": "HARA", "relative viability": 0.315}
{"cell line": "HCC-15", "relative viability": 1.2}
{"cell line": "HCC-44", "relative viability": 1.05}
{"cell line": "HCC-78", "relative viability": 0.468}
{"cell line": "HCC-366", "relative viability": 0.33}
{"cell line": "HCC-827", "relative viability": 0.211}
{"cell line": "HOP-62", "relative viability": 0.722}
{"cell line": "LC-2-ad", "relative viability": 0.801}
{"cell line": "LCLC-97TM1", "relative viability": 0.225}
{"cell line": "LCLC-103H", "relative viability": 0.613}
{"cell line": "NCI-H522", "relative viability": 0.885}
{"cell line": "NCI-H1792", "relative viability": 0.585}
{"cell line": "NCI-H2342", "relative viability": 0.49}
{"cell line": "SW 900", "relative viability": 0.544}
{"compound": "C[C@@H](C(=O)N[C@@H](C1CCCCC1)C(=O)N2CCC[C@H]2C(=O)N[C@@H]3[C@@H](CC4=CC=CC=C34)OCC#CC#CCO[C@@H]5CC6=CC=CC=C6[C@@H]5NC(=O)[C@@H]7CCCN7C(=O)[C@H](C8CCCCC8)NC(=O)[C@H](C)NC)NC [AZD5582] + NC(=O)Nc1cc(-c2cccc(F)c2)sc1C(=O)N[C@H]1CCCNC1 [AZD7762] (partner 0.2 µM)", "assay": "relative viability (nuclei count vs DMSO), 5 days (fraction); higher = more cells survive", "details": "first compound 0.05 µM", "in_short": "as §1"}
{"cell line": "201T", "relative viability": 0.447}
{"cell line": "A-427", "relative viability": 0.637}
{"cell line": "ABC-1", "relative viability": 0.572}
{"cell line": "BEN", "relative viability": 0.619}
{"cell line": "CAL-12T", "relative viability": 0.405}
{"cell line": "ChaGo-K-1", "relative viability": 0.837}
{"cell line": "EKVX", "relative viability": 0.595}
{"cell line": "EMC-BAC-2", "relative viability": 1.04}
{"cell line": "EPLC-272H", "relative viability": 0.0859}
{"cell line": "H3255", "relative viability": 0.773}
{"cell line": "HARA", "relative viability": 0.225}
{"cell line": "HCC-15", "relative viability": 0.615}
{"cell line": "HCC-44", "relative viability": 1.03}
{"cell line": "HCC-78", "relative viability": 0.417}
{"cell line": "HCC-366", "relative viability": 0.41}
{"cell line": "HCC-827", "relative viability": 0.186}
{"cell line": "HOP-62", "relative viability": 0.508}
{"cell line": "LC-2-ad", "relative viability": 0.929}
{"cell line": "LCLC-97TM1", "relative viability": 0.154}
{"cell line": "LCLC-103H", "relative viability": 0.41}
{"cell line": "NCI-H522", "relative viability": 0.645}
{"cell line": "NCI-H1648", "relative viability": 0.626}
{"cell line": "NCI-H1792", "relative viability": 1.02}
{"cell line": "NCI-H2342", "relative viability": 0.556}
{"cell line": "SW 900", "relative viability": 0.31}
{"compound": "Cn1nnc2c(C(N)=O)ncn2c1=O [Temozolomide] + Cc1nc(NC(=O)N2CCC[C@H]2C(N)=O)sc1-c1ccnc(C(C)(C)C(F)(F)F)c1 [Alpelisib] (partner 2 µM)", "assay": "relative viability (nuclei count vs DMSO), 5 days (fraction); higher = more cells survive", "details": "first compound 0.2 µM", "in_short": "as §1"}
{"cell line": "201T", "relative viability": 0.977}
{"cell line": "A549", "relative viability": 0.828}
{"cell line": "A-427", "relative viability": 1.05}
{"cell line": "ABC-1", "relative viability": 1.19}
{"cell line": "BEN", "relative viability": 0.914}
{"cell line": "CAL-12T", "relative viability": 1.11}
{"cell line": "COR-L23", "relative viability": 0.957}
{"cell line": "COR-L 105", "relative viability": 0.915}
{"cell line": "Calu-6", "relative viability": 1.03}
{"cell line": "EBC-1", "relative viability": 0.982}
{"cell line": "EKVX", "relative viability": 0.335}
{"cell line": "EMC-BAC-2", "relative viability": 0.743}
{"cell line": "EPLC-272H", "relative viability": 0.727}
{"cell line": "HARA", "relative viability": 0.72}
{"cell line": "HCC-15", "relative viability": 0.903}
{"cell line": "HCC-44", "relative viability": 0.811}
{"cell line": "HCC-78", "relative viability": 0.232}
{"cell line": "HCC-366", "relative viability": 0.337}
{"cell line": "HCC-827", "relative viability": 0.995}
{"cell line": "HOP-62", "relative viability": 1.18}
{"cell line": "IA-LM", "relative viability": 0.956}
{"cell line": "LC-2-ad", "relative viability": 0.896}
{"cell line": "LCLC-97TM1", "relative viability": 0.253}
{"cell line": "LCLC-103H", "relative viability": 0.819}
{"cell line": "NCI-H520", "relative viability": 1.01}
{"cell line": "NCI-H1299", "relative viability": 1.11}
{"cell line": "NCI-H1563", "relative viability": 0.957}
{"cell line": "NCI-H1792", "relative viability": 0.535}
{"cell line": "NCI-H2009", "relative viability": 1.15}
{"cell line": "NCI-H2023", "relative viability": 0.544}
{"cell line": "NCI-H2228", "relative viability": 0.77}
{"cell line": "SK-LU-1", "relative viability": 1.43}
{"cell line": "SK-MES-1", "relative viability": 1.06}
{"cell line": "SW 1573", "relative viability": 0.714}
{"cell line": "UMC-11", "relative viability": 1.08}
{"compound": "Cn1nnc2c(C(N)=O)ncn2c1=O [Temozolomide] + Cc1nc(NC(=O)N2CCC[C@H]2C(N)=O)sc1-c1ccnc(C(C)(C)C(F)(F)F)c1 [Alpelisib] (partner 2 µM)", "assay": "relative viability (nuclei count vs DMSO), 5 days (fraction); higher = more cells survive", "details": "first compound 0.6325 µM", "in_short": "as §1"}
{"cell line": "201T", "relative viability": 1.05}
{"cell line": "A549", "relative viability": 0.738}
